Assay results: ChEMBL document CHEMBL1201862, “PubChem BioAssay data set” (2004)
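Interpolation was linear, between the two tested concentrations surrounding the appropriate level; five concentrations were tested over 48 hours in 96-well plates. GI50: concentration for 50% inhibition of growth.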 Activity calls are given as the source filed them. Rule as the data show it: active = GI50 up to about 1.1 µM and inactive = higher.

Key:
Test in all cases: growth of human tumour cells (NCI), 48 h
[1] = test system: 786-0
[2] = test system: A549
[3] = test system: ACHN
[4] = test system: BT-549
[5] = test system: CAKI-1
[6] = test system: CCRF-CEM
[7] = test system: COLO 205
[8] = test system: DU-145
[9] = test system: EKVX
[10] = test system: HCC 2998
[11] = test system: HCT-116
[12] = test system: HCT-15
[13] = test system: HL-60
[14] = test system: HOP-62
[15] = test system: HT-29
[16] = test system: IGROV-1
[17] = test system: K562
[18] = test system: M14
[19] = test system: MCF7
[20] = test system: MDA-N
[21] = test system: MOLT-4
[22] = test system: Malme-3M
[23] = test system: NCI-H226
[24] = test system: NCI-H23
[25] = test system: NCI-H460
[26] = test system: NCI-H522
[27] = test system: NCI/ADR-RES
[28] = test system: OVCAR-3
[29] = test system: OVCAR-4
[30] = test system: OVCAR-5
[31] = test system: OVCAR-8
[32] = test system: PC-3
[33] = test system: RPMI-8226
[34] = test system: RXF 393
[35] = test system: SF-268
[36] = test system: SF-295
[37] = test system: SF-539
[38] = test system: SK-MEL-28
[39] = test system: SK-MEL-5
[40] = test system: SK-OV-3
[41] = test system: SN12C
[42] = test system: SNB-19
[43] = test system: SNB-75
[44] = test system: SR
[45] = test system: SW-620
[46] = test system: TK-10
[47] = test system: U-251
[48] = test system: UACC-257
[49] = test system: UACC-62
[50] = test system: UO-31
[51] = test system: A498
[52] = test system: HOP-92
[53] = test system: Hs-578T
[54] = test system: KM12
[55] = test system: LOX IMVI
[56] = test system: MDA-MB-231
[57] = test system: MDA-MB-435
[58] = test system: SK-MEL-2
[59] = test system: T47D

Measured: GI50

COC(CCC[N+](C)(C)C)CC[N+](C)(C)C (centres undefined)
inactive: [1] > 100 µM | [2] > 100 µM | [3] > 100 µM | [4] > 100 µM | [5] > 100 µM | [6] > 100 µM | [7] > 100 µM | [8] > 100 µM | [9] > 100 µM | [10] > 100 µM | [11] > 100 µM | [13] > 100 µM | [14] > 100 µM | [15] > 100 µM | [16] > 100 µM | [17] > 100 µM | [18] > 100 µM | [19] > 100 µM | [20] > 100 µM | [21] > 100 µM | [22] > 100 µM | [23] > 100 µM | [24] > 100 µM | [25] > 100 µM | [26] > 100 µM | [27] > 100 µM | [28] > 100 µM | [29] > 100 µM | [30] > 100 µM | [31] > 100 µM | [32] > 100 µM | [33] > 100 µM | [34] > 100 µM | [35] > 100 µM | [36] > 100 µM | [37] > 100 µM | [38] > 100 µM | [39] > 100 µM | [40] > 100 µM | [41] > 100 µM | [42] > 100 µM | [43] > 100 µM | [44] > 100 µM | [45] > 100 µM | [46] > 100 µM | [47] > 100 µM | [48] > 100 µM | [49] > 100 µM | [50] > 100 µM
> 100 µM: [12]

C=C(CCC(C)C1CCC2C3=C(C(=O)CC21C)C1(C)CCC(=O)[C@@H](C)C1CC3=O)C(C)C(=O)O (some centres undefined)
inactive: [1] 18.3 µM | [51] > 100 µM | [2] > 100 µM | [3] 29.9 µM | [4] 47.3 µM | [5] 30.7 µM | [6] 22.2 µM | [7] 45.1 µM | [8] > 100 µM | [9] 78.7 µM | [10] 98.2 µM | [11] 50.9 µM | [13] 14.7 µM | [14] 35.3 µM | [52] 30.8 µM | [15] 87.7 µM | [53] > 100 µM | [16] 42.6 µM | [17] 18.6 µM | [54] 85.5 µM | [55] 17.4 µM | [18] > 100 µM | [19] > 100 µM | [56] 39.3 µM | [57] 65.6 µM | [21] 40.2 µM | [22] > 100 µM | [23] > 100 µM | [24] 38.9 µM | [25] 34 µM | [26] 45.8 µM | [27] > 100 µM | [28] 60.1 µM | [29] 48.1 µM | [30] > 100 µM | [31] 61 µM | [32] 33.6 µM | [34] 18 µM | [35] > 100 µM | [36] 53.2 µM | [37] > 100 µM | [38] > 100 µM | [58] > 100 µM | [39] 31 µM | [41] > 100 µM | [42] > 100 µM | [43] 42.4 µM | [44] 35.2 µM | [45] 68.2 µM | [59] 30.7 µM | [46] > 100 µM | [47] 56.5 µM | [48] 46.9 µM | [49] 49.5 µM | [50] 15.2 µM
77.8 µM: [12]
active: [40] 0.51 µM

Cc1ccc(NC(=O)COc2ccc(Cl)cc2)cc1Cl
inactive: [1] 44.5 µM | [51] 45.3 µM | [2] 74.1 µM | [3] 42.7 µM | [4] 70.3 µM | [5] 18.7 µM | [7] > 100 µM | [8] > 100 µM | [9] 46.3 µM | [11] 14.4 µM | [14] 20 µM | [52] 51.8 µM | [15] > 100 µM | [53] 14.2 µM | [16] 36.5 µM | [17] > 100 µM | [54] > 100 µM | [55] 82 µM | [18] 47.1 µM | [19] > 100 µM | [56] 15.2 µM | [57] > 100 µM | [21] > 100 µM | [22] 30.5 µM | [23] 31 µM | [24] 19.7 µM | [25] > 100 µM | [26] 75.7 µM | [27] 78.2 µM | [28] > 100 µM | [29] > 100 µM | [30] 68.1 µM | [31] 28.9 µM | [32] > 100 µM | [33] 87.5 µM | [34] 24.7 µM | [35] 53.1 µM | [36] 50.5 µM | [37] 83.6 µM | [38] > 100 µM | [58] > 100 µM | [39] > 100 µM | [40] 52.4 µM | [41] 38.2 µM | [42] 74.1 µM | [43] 59 µM | [44] 10.1 µM | [45] > 100 µM | [59] > 100 µM | [46] 27.3 µM | [47] 27.4 µM | [48] 83.4 µM | [49] 53.3 µM | [50] 30.3 µM
> 100 µM: [12]
active: [6] 0.278 µM

COC(=O)C1=C(C(=O)OC)C2(C)C=CC1O2 (centres undefined)
inactive: [1] 3.78 µM | [51] 23.7 µM | [2] 99.8 µM | [3] 5.78 µM | [4] 23.1 µM | [7] 4.22 µM | [8] 17.9 µM | [9] 22 µM | [10] 16.2 µM | [11] 10.5 µM | [14] 34.9 µM | [52] 5.01 µM | [15] 15.2 µM | [53] 26.4 µM | [16] 19.4 µM | [17] 4.52 µM | [55] 16.7 µM | [18] 17.3 µM | [19] 31.5 µM | [56] 16.6 µM | [57] 19.1 µM | [22] 2.92 µM | [23] 19.6 µM | [24] 17.8 µM | [25] > 100 µM | [26] 2 µM | [27] 19.6 µM | [29] 13.1 µM | [30] 17.6 µM | [31] 17.4 µM | [32] 21.4 µM | [33] 1.91 µM | [34] 20.9 µM | [35] 31 µM | [37] 18.9 µM | [38] 16 µM | [58] 21.4 µM | [39] 18.5 µM | [40] > 100 µM | [41] 17.5 µM | [42] > 100 µM | [43] 24.3 µM | [45] 4.68 µM | [59] 3.44 µM | [46] 2.49 µM | [47] 18 µM | [48] 15.9 µM | [49] 17.6 µM | [50] 4.51 µM
16 µM: [12]
active: [28] 0.55 µM

N#Cc1c(-c2ccc(Cl)cc2)[nH]c(=O)n(C2OC(CO)C(O)C(O)C2O)c1=O (centres undefined)
inactive: [1] > 100 µM | [51] 21.1 µM | [2] > 100 µM | [3] > 100 µM | [4] > 100 µM | [5] > 100 µM | [6] > 100 µM | [7] > 100 µM | [8] > 100 µM | [9] 54.6 µM | [10] > 100 µM | [11] > 100 µM | [13] > 100 µM | [14] > 100 µM | [52] 26.2 µM | [15] > 100 µM | [53] > 100 µM | [16] 22.6 µM | [17] > 100 µM | [54] > 100 µM | [18] > 100 µM | [19] > 100 µM | [56] > 100 µM | [57] > 100 µM | [21] > 100 µM | [23] 46 µM | [24] > 100 µM | [25] > 100 µM | [26] > 100 µM | [27] > 100 µM | [28] > 100 µM | [29] > 100 µM | [30] > 100 µM | [31] > 100 µM | [32] > 100 µM | [33] > 100 µM | [34] > 100 µM | [35] > 100 µM | [36] > 100 µM | [37] > 100 µM | [38] > 100 µM | [58] > 100 µM | [39] > 100 µM | [40] > 100 µM | [41] > 100 µM | [42] > 100 µM | [43] 43.2 µM | [45] > 100 µM | [59] 74 µM | [46] > 100 µM | [47] > 100 µM | [48] > 100 µM | [49] > 100 µM | [50] > 100 µM
> 100 µM: [12]
